Measured values published in patent publication US20230203023A1, “SALT AND CRYSTAL FORMS OF GLP-1R AGONISTS AND USES THEREOF” (QILU REGOR THERAPEUTICS INC., priority 2020, published 2023).
Structures can show the parent of a compound that is named as a salt. Where two headings read alike, the source gives them in different places.

Key:
Type in all cases: physicochemical
[1] = Kinetic solubility test in water and bio-relevant media (SGF, FaSSIF, FeSSIF); conditions: for Purity (%), area percentage of API: for reference only (suspensions); for FC: form change: residual solids by XRPD; for pH: supernatant
Procedure, shortened: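 Solids (~1 mg/mL loading as freeform) rolled at 25 rpm, 37° C in water, SGF (pH 1.8), FaSSIF (pH 6.5) or FeSSIF (pH 5.0). Sampled at 1, 4 and 24 h, centrifuged and filtered (0.45 μm PTFE). Supernatant concentration by HPLC, with pH measured; residual solids checked by XRPD.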

[2] = Solid stability evaluation (I/II), XRPD and HPLC
Procedure, shortened: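 Tris salt Form A and amorphous free form of Compound I, and Compound II citrate salt Form A, Tris salt Form B and free form, stored as solids at 60° C. for 1 day and at 25° C./60% RH or 40° C./75% RH for 1 week. Physical form checked by XRPD and chemical stability by HPLC.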

[3] = Solid stability evaluation (II/II), HPLC in triplicate
Procedure: The chemical stability of 1:1 Compound II Citrate Salt (Form A) and 1:1 Compound II Tris Salt (Form B) was further evaluated at solid state, samples were stored under the ambient condition or 40° C./75% RH for 1 day and 3 days, respectively.

[4] = VH-XRPD, dehydration of the hydrate
Procedure: VH-XRPD and single crystal structure determination were performed for 1:1 Compound I Tris Salt (Form A) and it was identified as a monohydrate, which would dehydrate at the ≤30%RH condition.
VH-XRPD was performed for a 1:1 Compound II tris salt (Form B) sample for further identification. […] Combining the characterization results, it is believe that 1:1 Compound II tris salt (Form B) is a hydrate, which would dehydrate below ≤10% RH.

Polymorph screening = conditions: solution crystallization and solid transition methods
Procedure: Polymorph screening experiments on 1:1 Compound I Tris Salt (Form A) were performed under vairous conditions using different solution crystallization or solid transition methods, including anti-solvent addition, reverse anti-solvent addition, slow evaporation, slow cooling, slurry at RT, slurry at 50° C., slurry cycling 5-50° C., vapor-solid diffusion, vapor-solution diffusion, polymer induced crystallization, and grinding.

O=C(O)c1ccc2nc(CN3CC=C(c4cccc(OCc5ccc(Cl)cc5F)c4)CC3)n(C[C@@H]3CCO3)c2c1 [Tris salt Form A, (S)-2-((4-(3-((4-chloro-2-fluorobenzyl)-oxy)phenyl)-3,6-dihydropyridin-1(2H)-yl)methyl)-1-(oxetan-2-ylmethyl)-1H-benzo[d]-imidazole-6-carboxylic acid]
Purity (%), area percentage of API ([1]; FaSSIF, 1 hour): 92.63% | S: solubility ([1]; FaSSIF, 4 hours, 37° C.): 10 µg/mL | S: solubility ([1]; FaSSIF, 24 hours, 37° C.): 10 µg/mL | Purity (%), area percentage of API ([1]; FaSSIF, 24 hours): 58.70% | Purity (%), area percentage of API ([1]; FeSSIF, 1 hour): 94.61% | S: solubility ([1]; FeSSIF, 4 hours, 37° C.): 200 µg/mL | Purity (%), area percentage of API ([1]; FeSSIF, 4 hours): 81.75% | S: solubility ([1]; FeSSIF, 24 hours, 37° C.): 30 µg/mL | Purity (%), area percentage of API ([1]; FeSSIF, 24 hours): 43.32% | S: solubility ([1]; H2O, 1 hour, 37° C.): 100 µg/mL | Purity (%), area percentage of API ([1]; H2O, 1 hour): 96.74% | S: solubility ([1]; H2O, 4 hours, 37° C.): 100 µg/mL | Purity (%), area percentage of API ([1]; H2O, 4 hours): 89.77% | Purity (%), area percentage of API ([1]; H2O, 24 hours): 60.35% | Solubility in H2O, comparison in words ([1]; H2O, compared with the other tested materials): better solubility | solubility at 1 h ([1]; SGF, 37 °C, pH 1.8, simulated gastric fluid, thermodynamic from solid, SGF, 1 hour, 37° C., read-out: S: solubility): 400 µg/mL | solubility at 4 h ([1]; SGF, 37 °C, pH 1.8, simulated gastric fluid, thermodynamic from solid, SGF, 4 hours, 37° C., read-out: S: solubility): 400 µg/mL | solubility at 24 h ([1]; SGF, 37 °C, pH 1.8, simulated gastric fluid, thermodynamic from solid, SGF, 24 hours, 37° C., read-out: S: solubility): 500 µg/mL | Purity (%), area percentage of API ([1]; SGF, 1 hour): 93.12% | Purity (%), area percentage of API ([1]; SGF, 4 hours): 93.05% | Purity (%), area percentage of API ([1]; SGF, 24 hours): 89.49% | Form change in SGF, in words ([1]; SGF, XRPD after solubility test): Form change was observed | FC: form change ([1]; FaSSIF, 24 hours): No | FC: form change ([1]; SGF, 1 hour): Yes | FC: form change ([1]; SGF, 4 hours): Yes | FC: form change ([1]; SGF, 24 hours): Yes | pH ([1]; FaSSIF, 4 hours): 6.6 | pH ([1]; FaSSIF, 24 hours): 6.6 | pH ([1]; FeSSIF, 1 hour): 5.1 | pH ([1]; H2O, 1 hour): 8.0 | pH ([1]; H2O, 4 hours): 8.2 | pH ([1]; H2O, 24 hours): 8.4 | pH ([1]; SGF, 1 hour): 1.9 | pH ([1]; SGF, 4 hours): 2.0 | pH ([1]; SGF, 24 hours): 1.9 | solubility at 24 h ([1]; water, 37 °C, water, thermodynamic from solid, H2O, 24 hours, 37° C., read-out: S: solubility): 50 µg/mL | Purity (area %) ([2]; 25° C./60% RH (open), 1 week): 94.70 area % | Form change ([2]; 40° C./75% RH (open), 1 week): No | Observation ([2]; 40° C./75% RH (open), 1 week): Yellowish | Purity (area %) ([2]; 40° C./75% RH (open), 1 week): 95.40 area % | Chemical stability compared with free form ([2]; 60° C. 1 day, 25° C./60% RH or 40° C./75% RH 1 week): better chemical stability | Purity (area %) ([2]; 60° C. (capped), 1 day): 93.49 area % | Purity (area %) ([2]; Initial): 95.46 area % | Ave. Purity (area %) ([3]; 40° C./75% RH (open), 1 day): 94.8 area % | Ave. Purity (area %) ([3]; 40° C./75% RH (open), 3 days): 94.7 area % | Ave. Purity (area %) ([3]; Ambient condition (open), 1 day): 94.8 area % | Ave. Purity (area %) ([3]; Ambient condition (open), 3 days): 94.8 area % | Ave. Purity (area %) ([3]; Initial): 94.5 area % | Chemical stability at solid state, in words ([3]; ambient condition or 40° C./75% RH, 1 day and 3 days): better chemical stability | Relative humidity at which the hydrate would dehydrate [4]: ≤ 30 % RH | Form change in polymorph screening (Polymorph screening): did not change under most of the test conditions
